ChEMBL document CHEMBL5543121, “Drug Repurposing of ACT001 to Discover Novel Promising Sulfide Prodrugs with Improved Safety and Potent Activity for Neutrophil-Mediated Antifungal Immunotherapy” (J Med Chem, 2024)
Activity calls are given as the source filed them. The calls are words filed in the database; no cut-off is given here.

Columns and labels:
[1] = Inhibition of fungal curdlan induced PD-L1 expression in mouse neutrophils at 40 uM relative to control; type: functional, Neutrophil; conditions: for inhibition at 40 µM: Mus musculus, Neutrophil
[2] = (§1) Cytotoxicity against mouse neutrophils assessed as cell viability at 40 uM relative to control; type: toxicity, cell-based, Neutrophil; conditions: mouse neutrophils, read-out: Activity
Neutrophil [3] = experiment: as §1; type: toxicity, cell-based; conditions: neutrophil, 40 µM
[4] = target: Signal transducer and activator of transcription 3 (Mus musculus) (UniProt P42227); experiment: Binding affinity to STAT3 in mouse bone marrow neutrophils at 20 uM by silver staining based pulldown assay; type: cell-based; conditions: Neutrophil
[5] = target: Signal transducer and activator of transcription 3 (Mus musculus) (UniProt P42227); experiment: Binding affinity to STAT3 in mouse bone marrow neutrophils at 20 uM by pulldown based Western blot analysis; type: cell-based; conditions: Neutrophil
Candida albicans [6] = experiment: Antifungal activity against candida albicans SC5314 infected in mouse assessed as reduction in PD-L1 positive Ly6G-positive neutrophils in kidney at 200 mg/kg, po administered on day 1 and 3; type: functional, organism-based; conditions: time 1-3 day
Candida albicans [7] = experiment: Antifungal activity against candida albicans SC5314 infected in mouse assessed as reduction in fungal burden in kidney at 200 mg/kg, po administered on day 1 and 3; type: functional, organism-based; conditions: time 1-3 day
[8] = Induction of apoptosis in mouse neutrophils assessed as live cells at 20 uM incubated for 16 hrs by Annexin V-FITC/PI staining based flow cytometry analysis (reference value: 48.5%); type: toxicity, cell-based, Neutrophil; conditions: read-out: Activity
Neutrophil [9] = experiment: Induction of apoptosis in mouse neutrophils assessed as early apoptotic cells at 20 uM incubated for 16 hrs by Annexin V-FITC/PI staining based flow cytometry analysis (reference value: 25.9%); type: toxicity, cell-based
Neutrophil [10] = experiment: Induction of apoptosis in mouse neutrophils assessed as late apoptotic cells at 20 uM incubated for 16 hrs by Annexin V-FITC/PI staining based flow cytometry analysis (reference value: 24.1%); type: toxicity, cell-based
Neutrophil [11] = experiment: Induction of apoptosis in mouse neutrophils assessed as dead cells at 20 uM incubated for 16 hrs by Annexin V-FITC/PI staining based flow cytometry analysis (reference value: 1.58%); type: toxicity, cell-based
[12] = Induction of apoptosis in mouse neutrophils assessed as live cells at 40 uM incubated for 16 hrs by Annexin V-FITC/PI staining based flow cytometry analysis (reference value: 48.5%); type: toxicity, cell-based, Neutrophil; conditions: read-out: Activity
Neutrophil [13] = experiment: Induction of apoptosis in mouse neutrophils assessed as early apoptotic cells at 40 uM incubated for 16 hrs by Annexin V-FITC/PI staining based flow cytometry analysis (reference value: 25.9%); type: toxicity, cell-based
Neutrophil [14] = experiment: Induction of apoptosis in mouse neutrophils assessed as late apoptotic cells at 40 uM incubated for 16 hrs by Annexin V-FITC/PI staining based flow cytometry analysis (reference value: 24.1%); type: toxicity, cell-based
Neutrophil [15] = experiment: Induction of apoptosis in mouse neutrophils assessed as dead cells at 40 uM incubated for 16 hrs by Annexin V-FITC/PI staining based flow cytometry analysis (reference value: 1.58%); type: toxicity, cell-based
[16] = Inhibition of fungal curdlan induced PD-L1 expression in mouse neutrophils assessed as reduction in PD-L1 positive Ly6G positive neutrophils incubated for 16 hrs by flow cytometry analysis; type: functional, cell-based; conditions: Neutrophil
[17] = Cytotoxicity against mouse neutrophils assessed as reduction in cell viability incubated for 16 hrs by flow cytometry analysis; type: toxicity, cell-based, Neutrophil
[18] = Therapeutic index, ratio of IC50 for cytotoxicity against mouse neutrophils to IC50 for inhibition of fungal curdlan induced PD-L1 expression in mouse neutrophils; type: toxicity; conditions: read-out: Ratio IC50
[19] = Permeability of compound in PBS/EtOH (70:30) buffer incubated for 12 hrs by PAMPA-BBB assay; type: ADME; conditions: read-out: permeability
[20] = Half life in Sprague-Dawley rat; type: ADME; conditions: in vivo
[21] = Oral bioavailability in Sprague-Dawley rat; type: ADME, organism-based; conditions: in vivo
[22] = AUC (0 to infinity) in Sprague-Dawley rat at 20 mg/kg, iv; type: ADME, organism-based; conditions: in vivo
Candida albicans [23] = experiment: Induction of neutrophil-mediated antifungal immunity against Candida albicans SC5314 infected in mouse assessed as reduction in PD-L1 positive Ly6G positive neutrophils in bone marrow at 100 mg/kg, po administered once a day for 3 days by flow cytometry analysis; type: functional, organism-based; conditions: time 3.0 day
Candida albicans [24] = experiment: Induction of neutrophil-mediated antifungal immunity against Candida albicans SC5314 infected in mouse assessed as reduction in PD-L1 positive Ly6G positive neutrophils in kidney at 100 mg/kg, po administered once a day for 3 days by flow cytometry analysis; type: functional, organism-based; conditions: time 3.0 day
Candida albicans [25] = experiment: Induction of neutrophil-mediated antifungal immunity against Candida albicans SC5314 infected in mouse assessed as inhibition of CXCL1 protein expression in bone marrow at 100 mg/kg, po administered once a day for 3 days by ELISA; type: functional, organism-based; conditions: time 3.0 day
Candida albicans [26] = experiment: Induction of neutrophil-mediated antifungal immunity against Candida albicans SC5314 infected in mouse assessed as inhibition of CXCL2 protein expression in bone marrow at 100 mg/kg, po administered once a day for 3 days by ELISA; type: functional, organism-based; conditions: time 3.0 day
Candida albicans [27] = experiment: Induction of neutrophil-mediated antifungal immunity against Candida albicans SC5314 infected in mouse assessed as reduction in accumulation of Ly6G positive neutrophils in bone marrow at 100 mg/kg, po administered once a day for 3 days; type: functional, organism-based; conditions: time 3.0 day
Neutrophil [28] = experiment: Induction of neutrophil-mediated antifungal immunity against Candida albicans SC5314 infected in mouse assessed as increase in neutrophil infiltration in kidney at 100 mg/kg, po administered once a day for 3 days; type: functional, organism-based; conditions: time 3.0 day
Candida albicans [29] = experiment: Induction of neutrophil-mediated antifungal immunity against Candida albicans SC5314 infected in mouse assessed as reduction in fungal burden in kidneys at 100 mg/kg, po administered once a day for 3 days; type: functional, organism-based; conditions: time 3.0 day
Candida albicans [30] = experiment: Induction of neutrophil-mediated antifungal immunity against Candida albicans SC5314 infected in mouse assessed as increase in animal survival rate at 100 mg/kg, po administered once a day for 3 days; type: functional, organism-based; conditions: time 3.0 day
Candida albicans [31] = experiment: Induction of neutrophil-mediated antifungal immunity against Candida albicans SC5314 infected in mouse assessed as reduction in fungal clusters in kidney at 100 mg/kg, po administered once a day for 3 days by PAS staining based analysis; type: functional, organism-based; conditions: time 3.0 day
Candida albicans [32] = experiment: Antifungal activity against Candida albicans SC5314 assessed as inhibition of fungal growth at 0.25 to 128 ug/ml measured every 3 hrs for 24 hrs by absorbance based analysis; type: functional, organism-based; conditions: dose 0.25-128 µg/ml
Candida albicans [33] = experiment: Induction of neutrophil-mediated antifungal immunity against Candida albicans SC5314 infected in cyclophosphamide-induced immunosuppressed C57BL/6 mouse at 100 mg/kg, po pretreated with CTX for 3 days followed by fungal infection and further administered with compound once a day for 3 days; type: functional, organism-based; conditions: time 3.0 day
[34] = target: Signal transducer and activator of transcription 3 (Mus musculus) (UniProt P42227); experiment: Inhibition of biotinylated ACT001 probe binding to STAT3 in mouse bone marrow neutrophils at 100 uM by pulldown based Western blot analysis; type: cell-based; conditions: Neutrophil

Sequence of Signal transducer and activator of transcription 3 (Mus musculus) (P42227 whole entry): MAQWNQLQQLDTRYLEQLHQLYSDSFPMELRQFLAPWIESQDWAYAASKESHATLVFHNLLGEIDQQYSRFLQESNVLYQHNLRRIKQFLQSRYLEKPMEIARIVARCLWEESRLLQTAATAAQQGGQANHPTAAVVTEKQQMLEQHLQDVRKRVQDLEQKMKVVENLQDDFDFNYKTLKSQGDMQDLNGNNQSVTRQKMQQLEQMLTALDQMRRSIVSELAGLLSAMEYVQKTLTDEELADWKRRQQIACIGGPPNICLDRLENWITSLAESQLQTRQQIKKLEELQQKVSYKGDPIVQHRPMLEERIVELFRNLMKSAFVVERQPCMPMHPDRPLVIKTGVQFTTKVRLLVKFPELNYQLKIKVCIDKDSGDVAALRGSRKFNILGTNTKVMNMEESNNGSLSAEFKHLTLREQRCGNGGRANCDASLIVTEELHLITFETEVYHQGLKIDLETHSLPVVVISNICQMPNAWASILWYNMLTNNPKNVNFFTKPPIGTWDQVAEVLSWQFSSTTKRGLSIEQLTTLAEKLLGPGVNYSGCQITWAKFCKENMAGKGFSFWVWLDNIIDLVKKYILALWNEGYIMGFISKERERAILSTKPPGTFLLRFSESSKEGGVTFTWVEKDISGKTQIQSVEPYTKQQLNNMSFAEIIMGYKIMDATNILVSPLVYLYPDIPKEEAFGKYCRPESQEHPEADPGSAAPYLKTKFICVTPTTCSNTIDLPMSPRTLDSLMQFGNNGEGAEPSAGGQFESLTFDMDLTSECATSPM

C[C@@]1(O)CC[C@]23O[C@@]2(C)CC[C@@H]2[C@H](OC(=O)[C@H]2C[S+]([O-])c2ccc(Cl)cc2Cl)[C@@H]13 (stereo in doubt; 23a)
inhibition at 40 µM [1]: 61.1%
viability at 40 µM [2]: 59.2%

CC1=C2CC[C@@](C)(O)[C@@H]2[C@H]2OC(=O)[C@@H](C[S+]([O-])c3ccc(Cl)cc3Cl)[C@@H]2CC1 (stereo in doubt; 22b)
inhibition (INH) ([1]; 40 µM): 47.66%
Activity (Neutrophil [3]): 21.1%

C[C@@]1(O)CC[C@]23O[C@@]2(C)CC[C@@H]2[C@H](OC(=O)[C@H]2CS(=O)(=O)c2ccncc2)[C@@H]13
inhibition at 40 µM [1]: 65.4%
viability at 40 µM [2]: 79.4%

C[C@@]1(O)CC[C@]23O[C@@]2(C)CC[C@@H]2[C@H](OC(=O)[C@H]2CS(=O)(=O)c2ccc(Cl)c(Cl)c2)[C@@H]13
inhibition at 40 µM [1]: 72.7%
viability at 40 µM [2]: 65.2%

C=C1C(=O)O[C@H]2[C@H]1CCC(C)=C1CC[C@@](C)(OC(=O)CCCc3cn(CCOCCOCCOCCNC(=O)CCCC[C@H]4SC[C@H]5NC(=O)N[C@H]54)nn3)[C@@H]12
Activity [4]: Active
Activity [5]: Active

CC1=C2CC[C@@](C)(O)[C@@H]2[C@H]2OC(=O)[C@@H](CSc3c(Cl)cccc3Cl)[C@@H]2CC1
inhibition at 40 µM [1]: 41.6%
viability at 40 µM [2]: 57.5%

CC1=C2CC[C@@](C)(O)[C@@H]2[C@H]2OC(=O)[C@@H](CS(=O)(=O)C3CCCCC3)[C@@H]2CC1
inhibition at 40 µM [1]: 49.5%
viability at 40 µM [2]: 66.3%

COc1ccc(SC[C@@H]2C(=O)O[C@H]3[C@H]2CCC(C)=C2CC[C@@](C)(O)[C@@H]23)cc1
inhibition at 40 µM [1]: 63.2%
viability at 40 µM [2]: 88.8%

CC1=C2CC[C@@](C)(O)[C@@H]2[C@H]2OC(=O)[C@@H](C[S+]([O-])c3ccc(Cl)cc3Cl)[C@@H]2CC1 (stereo in doubt; 22a)
inhibition at 40 µM [1]: 64.8%
Activity (Neutrophil [3]): 74.28%

CC1=C2CC[C@@](C)(O)[C@@H]2[C@H]2OC(=O)[C@@H](CSC3CCCCC3)[C@@H]2CC1
inhibition at 40 µM [1]: 15.8%
viability at 40 µM [2]: 101%

CC(C)CCS(=O)(=O)C[C@@H]1C(=O)O[C@H]2[C@H]1CC[C@]1(C)O[C@@]13CC[C@@](C)(O)[C@H]23
inhibition at 40 µM [1]: 60.9%
viability at 40 µM [2]: 68.7%

CC1=C2CC[C@@](C)(O)[C@@H]2[C@H]2OC(=O)[C@@H](CSc3ccc(Cl)c(Cl)c3)[C@@H]2CC1
inhibition at 40 µM [1]: 71.1%
viability at 40 µM [2]: 86.6%

Cc1ccc(S(=O)(=O)C[C@@H]2C(=O)O[C@H]3[C@H]2CC[C@]2(C)O[C@@]24CC[C@@](C)(O)[C@H]34)cc1
inhibition at 40 µM [1]: 82%
viability at 40 µM [2]: 71.5%
Activity (Candida albicans [6]): Active
Activity (Candida albicans [7]): Active

CC1=C2CC[C@@](C)(O)[C@@H]2[C@H]2OC(=O)[C@@H](CN(C)C)[C@@H]2CC1 [ACT-001]
inhibition at 40 µM [1]: 72.8%
viability at 40 µM [2]: 27.6%
viability at 16 h, 20 µM [8]: 37.1%
Activity (Neutrophil [9]): 35.1%
Activity (Neutrophil [10]): 25.2%
Activity (Neutrophil [11]): 2.62%
viability at 16 h, 40 µM [12]: 26.6%
Activity (Neutrophil [13]): 39.2%
Activity (Neutrophil [14]): 29.9%
Activity (Neutrophil [15]): 4.28%
IC50 [16]: 16.8 µM
IC50 at 16 h [17]: 29.3 µM
selectivity ratio [18]: 1.7
Papp at 12 h [19]: 4.7 ×10⁻⁶ cm/s
half-life [20]: 1.12 h
bioavailability [21]: 50.8%
AUC(0-inf) [22]: 5540 ng·h/mL
Activity (Candida albicans [23]): Active
Activity (Candida albicans [24]): Active
Activity (Candida albicans [25]): Active
Activity (Candida albicans [26]): Active
Activity (Candida albicans [27]): Active
Activity (Neutrophil [28]): Active
Activity (Candida albicans [29]): Active
Activity (Candida albicans [30]): Active
Activity (Candida albicans [31]): Active
Activity (Candida albicans [32]): inactive
Activity (Candida albicans [33]): inactive
inhibition [34]: Active
